This is an account of results in patent US20240287627A1, “TEMPORALLY MULTIPLEXED IMAGING” (MASSACHUSETTS INSTITUTE OF TECHNOLOGY, priority 2023, published 2024).

Common to all, as to format: cell-based
One assay has as its system Ca^2+. Kind of assay: Ca2+ imaging with NIR-GECO2G in NIH/3T3 cells (seven-signal imaging). To be noted: 100 ng/ml PMA added at t=44 min (after forskolin). The text has this: (§1) Simultaneous imaging of seven cell activities within single cells: The genes of the single-color KTRs were cloned into the following plasmid: CAG-JNKKTRrsGreenF-E-P2A-ERK KTRrsFastLime-IRES-PKAKTRClover-P2A-P38KTRDropna (JNKKTR is SEQ ID NO: 5 and PKAKTR is SEQ ID NO: 7). The aforementioned plasmid was then used with plasmid CAG-NIR-GECO2G (Qian Y, et al., PLoS Biol., (2020); 18(11):e3000965), plasmid CMV-Pink Flamindo (Harada K, et al., Sci Rep., (2017); 7(1):7351), and plasmid CMV-BlueCKAR (Mehta S, et al., Nat Cell Biol, (2018); 20(10):1215-25) for imaging 7 signals within individual NIH/3T3 cells. Imaging conditions for blue channel, green channel, and red channel were the same as those used in the imaging of cell cycle phases and CDKs activities. An extra channel (excitation: 637/12 nm at 9 mW/mm^2; emission: 664LP, exposure time: 100 ms) was used for imaging NIR-GECO2G. Images and movies were acquired every 2 min. 50 μM forskolin (Millipore Sigma) and 100 ng/ml Phorbol 12-myristate 13-acetate (PMA) (Millipore Sigma) were used to stimulate cells.

The next assay concerns JNK. Kind of assay: Kinase translocation reporter imaging, rsGreenF-E-based JNK sensor, in NIH/3T3 cells. From the text:
(§2) The constructs of JNKKTRrsGreenFast-E (JNKKTR is SEQ ID NO: 5), P38KTRDronpa, ERKKTRrsFastLime (ERKKTR is SEQ ID NO: 6) were built based on the original KTRs constructs JNKKTRClover (addgene plasmid 59151; JNKKTR is SEQ ID NO: 5), P38KTRmCerulean3 (addgene plasmid 59155), ERKKTRClover(addgene plasmid 59150; ERKKTR is SEQ ID NO: 6), all gift of Markus W. Covert (Regot S, et al., Cell, (2014); 157(7):1724-34). The newly developed three KTRs were then used along with PKAKTRClover (addgene plasmid […]; PKAKTR is SEQ ID NO: 7) and H2B-TagBFP to report the activities of all four kinases. H2B-TagBFP was used as a nucleus marker. NIH/3T3 cells were imaged on the same microscope and incubator system as the imaging of cell cycle phases. Cell culture media were changed to imaging media (MEM (Gibo) without phenol red with 1% FBS (Gibo)) prior to imaging. The imaging conditions (including exposure time, excitation, and emission) for KTRs were the same as those for imaging cell cycle phases as described previously. […]
(§3) Quantification of KTRs: Kinase activities reported by KTRs including CDK2 reporter and CDK4/6 reporter were quantified following the methods described previously (Regot S, et al., Cell, (2014); 157(7):1724-34). […]

The next assay deals with PKA. Kind of assay: Kinase translocation reporter imaging, PKA KTR-Clover, in NIH/3T3 cells.
From the text: as §2, §3

The subject of the next assay is P38. Put plainly: Kinase translocation reporter imaging, Dronpa-based P38 sensor, in NIH/3T3 cells.
From the text: as §2, §3

The subject of another assay is cAMP. Put plainly: cAMP imaging with Pink Flamindo in NIH/3T3 cells (seven-signal imaging). As to conditions: 100 ng/ml PMA added at t=44 min (after forskolin).
From the text: as §1

The test system of the next assay is ERK. Kind of assay: Kinase translocation reporter imaging, rsFastLime-based ERK sensor, in NIH/3T3 cells.
From the text: as §2, §3

Another assay relates to PKC. Put plainly: PKC imaging with BlueCKAR in NIH/3T3 cells (seven-signal imaging). As to conditions: 100 ng/ml PMA added at t=44 min (after forskolin).
From the text: as §1

The mark [1] stands for this setting: seven-signal imaging, 100 ng/ml PMA added at t=44 min (after forskolin).
The mark [2] stands for this setting: four-KTR imaging, 20 ng/ml bFGF2 at t=0 min.

Regarding `CCCCCCCCCCCCCC(=O)O[C@@H]1[C@@H](C)[C@@]2(O)[C@@H](C=C(CO)C[C@]3(O)C(=O)C(C)=C[C@@H]23)[C@@H]2C(C)(C)[C@]12OC(C)=O` [PMA, phorbol 12-myristate 13-acetate], the “Ca^2+ response” value in the assay with Ca^2+ is listed as “little to no changes”. Moreover, in the assay with JNK (setting [1]), the JNK response result is recorded as “strong responses”. In the assay on PKA (setting [1]), the PKA response entry is on record as “strong responses”. For the same molecule, the P38 response result in the assay on P38 (setting [1]) is “little to no changes”. The cAMP response entry in the assay with cAMP is given as “strong responses”. In addition, the ERK response entry in the assay on ERK (setting [1]) is listed as “strong responses”. In addition, in the assay on PKC, the PKC response result is “strong responses”.

B1: bFGF2: mouse basic fibroblast growth factor 2 (protein, UniProt P15655 10-154, looked up)
Fibroblast growth factor 2: PALPEDGGAAFPPGHFKDPKRLYCKNGGFFLRIHPDGRVDGVREKSDPHVKLQLQAEERGVVSIKGVCANRYLAMKEDGRLLASKCVTEECFFFERLESNNYNTYRSRKYSSWYVALKRTGQYKLGSKTGPGQKAILFLPMSAKS
B1: the “JNK KTR signal after stimulation” value in the assay with JNK (setting [2]) is “Fast onset”. For the same molecule, the “PKA KTR signal after stimulation” value with PKA (setting [2]) is given as “Fast onset”. Moreover, in the assay with P38 (setting [2]), the “P38 KTR signal after stimulation” value is recorded as “steadily increased over time”. In addition, in the assay on ERK (setting [2]), the “ERK KTR signal after stimulation” value is recorded as “steadily increased over time”.
